# Strand notation (5' to 3'): a small letter for the sugar, then the base; units joined by * are phosphorothioate-linked, units joined directly phosphodiester-linked; [ ] holds rarer units or linkages, { } end groups; capitals alone tell only the bases. e = 2'-O-(2-methoxyethyl) (MOE); [5mC] = 5-methylcytosine; d = 2'-deoxy (DNA)
# System: human PKK mRNA
# Assay: Antisense inhibition of human PKK mRNA in HepaRG cells, 5,000 nM (Example 2)
# Assay type: cell-based
# Details: HepaRG cells, electroporation with 5,000 nM antisense oligonucleotide, approximately 24 hours, PKK mRNA by RT-PCR (RTS3454), relative to untreated control cells; Table 6 experiment
# Experimental: Additional antisense oligonucleotides were designed targeting a PKK nucleic acid and were tested for their effects on PKK mRNA in vitro.
# The chimeric antisense oligonucleotides in the tables below were designed as 5-10-5 MOE gapmers, 4-9-4 MOE gapmers, 4-10-4 MOE gapmers, 4-10-3 MOE gapmers, 3-10-4 MOE gapmers, or 3-10-3 MOE gapmers. The 5-10-5 MOE gapmers are 20 nucleosides in length, wherein the central gap segment comprises of ten 2′-deoxynucleosides and is flanked by wing segments on the 5′ direction and the 3′ direction comprising five nucleosides each. The 4-9-4 MOE gapmers are 17 nucleosides in length, wherein the central gap segment comprises of nine 2′-deoxynucleosides and is flanked by wing segments on the 5′ direction and the 3′ direction comprising four nucleosides each. The 4-10-4 MOE gapmers are 18 nucleosides in length, wherein the central gap segment comprises of ten 2′-deoxynucleosides and is flanked by wing segments on the 5′ direction and the 3′ direction comprising four nucleosides each. The 4-10-3 MOE gapmers are 17 nucleosides in length, wherein the central gap segment comprises of ten 2′-deoxynucleosides and is flanked by wing segments on the 5′ direction and the 3′ direction comprising four and three nucleosides respectively. The 3-10-4 MOE gapmers are 17 nucleosides in length, wherein the central gap segment comprises often 2′-deoxynucleosides and is flanked by wing segments on the 5′ direction and the 3′ direction comprising three and four nucleosides respectively. The 3-10-3 MOE gapmers are 16 nucleosides in length, wherein the central gap segment comprises of ten 2′-deoxynucleosides and is flanked by wing segments on the 5′ direction and the 3′ direction comprising three nucleosides each. Each nucleoside in the 5′ wing segment and each nucleoside in the 3′ wing segment has a 2′-O-methoxyethyl modification. The internucleoside linkages throughout each gapmer are phosphorothioate linkages. All cytosine residues throughout each gapmer are 5-methylcytosines. “Start site” indicates the 5′-most nucleoside to which the gapmer is targeted in the human gene sequence. “Stop site” indicates the 3′-most nucleoside to which the gapmer is targeted in the human gene sequence.
# Cultured HepaRG™ cells at a density of 20,000 cells per well were transfected using electroporation with 5,000 nM antisense oligonucleotide. After a treatment period of approximately 24 hours, RNA was isolated from the cells and PKK mRNA levels were measured by quantitative real-time PCR. Human primer probe set RTS3454 was used to measure mRNA levels. PKK mRNA levels were adjusted according to total RNA content, as measured by RIBOGREEN®. The antisense oligonucleotides were tested in a series of experiments that had similar culture conditions. Results are presented as percent inhibition of PKK, relative to untreated control cells.
row,Substance,% inhibition
1,546181 (antisense eT*eG*eA*e[5mC]*e[5mC]*dA*d[5mC]*dA*dT*dT*dG*d[5mC]*dT*dT*d[5mC]*eA*eA*eG*eG*eA) [compound 546181],75%
2,546183 (antisense e[5mC]*eA*e[5mC]*eT*eT*dA*dT*dT*dT*dG*dA*dT*dG*dA*d[5mC]*e[5mC]*eA*e[5mC]*eA*eT) [compound 546183],69%
3,546184 (antisense e[5mC]*eA*eA*eG*e[5mC]*dA*d[5mC]*dT*dT*dA*dT*dT*dT*dG*dA*eT*eG*eA*e[5mC]*e[5mC]) [compound 546184],65%
4,546186 (antisense eA*eT*eG*eT*e[5mC]*dT*d[5mC]*dG*dA*dT*dG*dG*d[5mC]*dA*dA*eG*e[5mC]*eA*e[5mC]*eT) [compound 546186],84%
5,546192 (antisense eA*eA*eT*eT*eG*dA*d[5mC]*dT*d[5mC]*d[5mC]*dT*d[5mC]*dT*d[5mC]*dA*eT*eA*eT*e[5mC]*eA) [compound 546192],51%
6,546193 (antisense e[5mC]*eA*eT*eT*eA*dA*dA*dA*dT*dT*dG*dA*d[5mC]*dT*d[5mC]*e[5mC]*eT*e[5mC]*eT*e[5mC]) [compound 546193],57%
7,546196 (antisense e[5mC]*eA*e[5mC]*eT*eG*d[5mC]*dT*dA*dA*d[5mC]*d[5mC]*dT*dT*dA*dG*eA*e[5mC]*eA*e[5mC]*eA) [compound 546196],83%
8,546199 (antisense eT*eG*eG*e[5mC]*eA*dT*dT*d[5mC]*dT*dT*d[5mC]*dA*dA*d[5mC]*dA*e[5mC]*eT*eG*e[5mC]*eT) [compound 546199],97%
9,546200 (antisense eA*eA*eA*eA*e[5mC]*dT*dG*dG*d[5mC]*dA*dG*d[5mC]*dG*dA*dA*eT*eG*eT*eT*eA) [compound 546200],91%
10,546203 (antisense eA*eA*eT*eT*eG*dT*dT*d[5mC]*d[5mC]*dG*dG*dT*dA*d[5mC]*dT*e[5mC]*eT*eG*e[5mC]*e[5mC]) [compound 546203],76%
11,546204 (antisense eA*eA*eT*eA*eG*dG*d[5mC]*dA*dA*dT*dT*dG*dT*dT*d[5mC]*e[5mC]*eG*eG*eT*eA) [compound 546204],91%
12,546205 (antisense eG*eT*eA*e[5mC]*eT*dT*dT*dA*dA*dT*dA*dG*dG*d[5mC]*dA*eA*eT*eT*eG*eT) [compound 546205],83%
13,546209 (antisense eG*e[5mC]*eT*eT*e[5mC]*dA*dG*dT*dG*dA*dG*dA*dA*dT*d[5mC]*e[5mC]*eA*eG*eA*eT) [compound 546209],73%
14,546210 (antisense e[5mC]*e[5mC]*eA*eA*eT*dT*dT*d[5mC]*dT*dG*dA*dA*dA*dG*dG*eG*e[5mC]*eA*e[5mC]*eA) [compound 546210],79%
15,546211 (antisense eG*eG*e[5mC]*eA*eA*d[5mC]*d[5mC]*dA*dA*dT*dT*dT*d[5mC]*dT*dG*eA*eA*eA*eG*eG) [compound 546211],42%
16,546212 (antisense eA*eG*eA*eT*eG*d[5mC]*dT*dG*dG*dA*dA*dG*dA*dT*dG*eT*eT*e[5mC]*eA*eT) [compound 546212],48%
17,546213 (antisense e[5mC]*e[5mC]*e[5mC]*eT*eG*dG*d[5mC]*dA*dA*d[5mC]*dA*dT*d[5mC]*d[5mC]*dA*e[5mC]*eA*eT*e[5mC]*eT) [compound 546213],82%

# Same assay, conditions: Table 7; HepaRG cells, electroporation with 5,000 nM antisense oligonucleotide, approx. 24 hours; PKK mRNA by RT-PCR (RTS3454), relative to untreated control cells
row,Substance,% inhibition
1,546217 (antisense e[5mC]*eA*e[5mC]*eA*eA*dA*dA*dG*d[5mC]*dA*dT*d[5mC]*dT*dG*dG*eA*eG*eT*eG*eA) [compound 546217],83%
2,546218 (antisense eT*eG*eG*eT*e[5mC]*d[5mC]*dG*dA*d[5mC]*dA*d[5mC]*dA*d[5mC]*dA*dA*eA*eA*eG*e[5mC]*eA) [compound 546218],71%
3,546220 (antisense eT*eA*eG*eG*eT*dG*d[5mC]*dA*dG*dA*dT*dG*dG*dT*d[5mC]*e[5mC]*eG*eA*e[5mC]*eA) [compound 546220],71%
4,546222 (antisense eG*eG*eG*eT*eG*dA*dT*dA*dG*dG*dT*dG*d[5mC]*dA*dG*eA*eT*eG*eG*eT) [compound 546222],12%
5,546224 (antisense eT*eA*eG*eA*eA*dT*dG*dT*dA*dA*dA*dG*dA*dA*dG*eA*eG*eG*e[5mC]*eA) [compound 546224],65%
6,546226 (antisense e[5mC]*e[5mC]*eA*eT*eA*d[5mC]*dA*dT*dT*dT*dG*dT*dA*dT*dA*eG*eA*eA*eT*eG) [compound 546226],37%
7,546228 (antisense eG*eT*eG*eA*e[5mC]*dT*d[5mC]*dG*dA*dT*dT*dT*dT*d[5mC]*d[5mC]*eA*eT*eA*e[5mC]*eA) [compound 546228],60%
8,546229 (antisense eA*e[5mC]*eA*eT*eT*dT*d[5mC]*dT*dT*dT*dG*dT*dG*dA*d[5mC]*eT*e[5mC]*eG*eA*eT) [compound 546229],19%
9,546230 (antisense eG*eT*eG*eT*eG*d[5mC]*d[5mC]*dA*d[5mC]*dT*dT*dT*d[5mC]*dA*dG*eA*eT*eG*eT*eT) [compound 546230],70%
10,546231 (e[5mC]*eT*eT*eG*eG*dT*dG*dT*dG*d[5mC]*d[5mC]*dA*d[5mC]*dT*dT*eT*e[5mC]*eA*eG*eA; antisense) [compound 546231],79%
11,546233 (eA*eT*eG*eG*eT*dG*dT*dT*dT*dT*d[5mC]*dT*dT*dG*dA*eG*eG*eA*eG*eT; antisense) [compound 546233],69%
12,546234 (e[5mC]*e[5mC]*eA*eG*eA*dT*dA*dT*dG*dG*dT*dG*dT*dT*dT*eT*e[5mC]*eT*eT*eG; antisense) [compound 546234],69%
13,546235 (eG*eG*e[5mC]*eT*eA*dT*dA*dT*d[5mC]*d[5mC]*dA*dG*dA*dT*dA*eT*eG*eG*eT*eG; antisense) [compound 546235],77%
14,546236 (eG*eT*eT*eA*eA*dA*dA*dG*dG*d[5mC]*dT*dA*dT*dA*dT*e[5mC]*e[5mC]*eA*eG*eA; antisense) [compound 546236],50%
15,546237 (e[5mC]*eA*eG*eG*eT*dT*dA*dA*dA*dA*dG*dG*d[5mC]*dT*dA*eT*eA*eT*e[5mC]*e[5mC]; antisense) [compound 546237],64%
16,546238 (e[5mC]*eT*eT*eT*eT*dG*d[5mC]*dA*dG*dG*dT*dT*dA*dA*dA*eA*eG*eG*e[5mC]*eT; antisense) [compound 546238],63%
17,546239 (eG*eT*eT*e[5mC]*eT*dT*dT*dT*dG*d[5mC]*dA*dG*dG*dT*dT*eA*eA*eA*eA*eG; antisense) [compound 546239],47%
18,546240 (eG*eT*eA*eA*eA*dG*dT*dT*d[5mC]*dT*dT*dT*dT*dG*d[5mC]*eA*eG*eG*eT*eT; antisense) [compound 546240],23%
19,546241 (e[5mC]*eA*eG*eG*eT*dA*dA*dA*dG*dT*dT*d[5mC]*dT*dT*dT*eT*eG*e[5mC]*eA*eG; antisense) [compound 546241],69%
20,546242 (eG*eG*eG*eT*eT*d[5mC]*dA*dG*dG*dT*dA*dA*dA*dG*dT*eT*e[5mC]*eT*eT*eT; antisense) [compound 546242],8%
21,546243 (eA*eG*eA*eA*eT*dG*dG*d[5mC]*dA*dG*dG*dG*dT*dT*d[5mC]*eA*eG*eG*eT*eA; antisense) [compound 546243],16%
22,546244 (eT*eA*eA*eA*eT*dT*dT*dT*dA*dG*dA*dA*dT*dG*dG*e[5mC]*eA*eG*eG*eG; antisense) [compound 546244],27%

# From patent US11840686B2, “Modulation of prekallikrein (PKK) expression” (Ionis Pharmaceuticals, Inc., priority 2013, dated 2023)
